Experiments:
Format in all cases: physicochemical
[1] = Fluorescence emission spectrum (maximum emission wavelength)
Protocol: Method for Obtaining a Fluorescence Emission Spectrum
Fluorescence emission spectra are obtained and recorded on a QM-4-CW Spectrofluorometer using FeliX32 software (Photon Technology International, Inc., Birmingham, N.J.).
(§1) The compounds were analyzed at 298° K according to the Method for Obtaining Ultraviolet-Visible Light Spectrum (30 μM acetonitrile) to obtain the maximum absorbance wavelength (λabs,max), Method for Obtaining Fluorescence Emission Spectrum (30 μM acetonitrile) to obtain the maximum emission wavelength (λem,max) and Method for Determining Quantum Yield (ΦF) (30 μM acetonitrile) at the concentration, in the solvent, and with the counter ion indicated in Table 1. The compounds included hydrogen at each R group that is not otherwise specified.
(§2) Compounds 6, 7, 9, 11-14 and 21 were analyzed according to: the Method for Obtaining Ultraviolet-Visible Light Spectrum to obtain the maximum absorbance wavelength (λabs,max), the Method for Obtaining Fluorescence Emission Spectrum to obtain the maximum emission wavelength (λem,max), and the Method for Determining Quantum Yield (ΦF) in the solvent and with the counter ion indicated in Table 3.

[2] = Ultraviolet-visible light spectrum (maximum absorbance wavelength)
Protocol: Method for Obtaining an Ultraviolet-Visible Light Spectrum
Ultraviolet-visible (UV-Vis) Light spectra are obtained and recorded on an Agilent 8453 spectrophotometer using ChemStation software (Agilent Technologies, Inc., Santa Clara, Calif.).
as §1, §2

[3] = Fluorescence quantum yield, integrating sphere; conditions: for ΦF (quantum yield): 30 μM acetonitrile, 298 K, Table 1
Protocol: Method for Determining Quantum Yield
Quantum yield is determined using an integrating sphere attached to a QM-4-CW Spectrofluorometer using FeliX32 software (Photon Technology International).
as §1, §2

[4] = Fluorescence response to trifluoroacetic acid / DBU in acetonitrile; conditions: for emission intensity at 400 nm: 30 μM in acetonitrile + 50 μL trifluoroacetic acid; for emission intensity at 600 nm / emission wavelength: 30 μM in neat acetonitrile; for emission wavelength λem,max: acetonitrile + 50 μL trifluoroacetic acid
Protocol: A 30 μM solution of Compound 6 in acetonitrile was prepared by adding 99 μL of a stock solution of 3.04 mM Compound 6 in methanol to 10 mL of acetonitrile. An initial fluorescence emission spectrum of the solution was obtained and is illustrated by curve (i) in FIG. 1A.
A series of approximately 13.8 μL aliquots of trifluoroacetic acid (TFA) were then added to the 30 μM solution of Compound 6 until a total concentration of 60.0 mM of TFA was present in the solution. (The total amount of TFA present in the solution corresponded to 2000 equivalents of acid per equivalent of Compound 6.) The fluorescence emission spectrum of the resulting solution was obtained and is illustrated by curve (ii) in FIG. 1A.
A base, i.e., 1,8-diazabicyclo[5.4.0]undec-7-ene (DBU), was then added to the solution to neutralize the acid until a concentration of 90 mM DBU was obtained. The fluorescence emission spectrum of the resulting solution was obtained and is illustrated by curve (iii) in FIG. 1A. The fluorescence emission intensity at λem,max=565 nm increased as the amount of base present in the system increased and the fluorescence emission intensity at λem,max=405 nm decreased as the amount of base present in the system increased, which reflected Compound 6's ratiometric response to the changing base concentration in acetonitrile.
A 30 μM solution of Compound 7 in acetonitrile was prepared by adding 84 μL of a stock solution of 3.58 mM Compound 7 in methanol to 10 mL of acetonitrile. The emission spectrum of the solution was then obtained and is illustrated by curve (i) in FIG. 1B.
A series of approximately 13.8 μL aliquots of TFA were then added to the 30 μM solution of Compound 7 until a total concentration of 60.0 mM TFA was present in the solution (which corresponded to 2000 equivalents of acid per equivalent of Compound 7). The fluorescence emission spectrum of the solution was obtained and is illustrated by curve (ii) in FIG. 1B.
After the 60 mM TFA concentration was achieved, DBU was gradually added to the solution until a total concentration of 90 mM DBU was present in the solution. The fluorescence spectrum of the solution was obtained and is illustrated by curve (iii) in FIG. 1B.
An aliquot of 50 μL of trifluoroacetic acid was then added to the system, and the fluorescence emission spectrum was obtained and is illustrated by the curved line with a peak at 360 nm in FIG. 6A.
Compound 10 was placed in neat acetonitrile and its emission spectrum was monitored as trifluoroacetic acid was added to the acetonitrile in incremental amounts to achieve a solution that included an acid concentration ranging from 0 to 0.2 M. After each acid addition the sample was excited with radiation of a wavelength 340 nm, and its fluorescence emission spectrum was monitored. The results are illustrated in FIG. 7A.
The solution of Compound 10 in acetonitrile was titrated with trifluoroacetic acid (TFA). […] The first stage, which occurred with the addition of the initial aliquots of TFA, was a slight increase intensity at 580 nm, as illustrated in FIG. 7A. As more TFA was added to the system, a second transition occurred in which the emission at 580 nm began to decrease and as the emission at 400 nm began to increase, as illustrated in FIG. 7B. A plot of the emission intensity at 580 nm versus pH and at 400 nm versus pH is illustrated in FIG. 7C.
Compounds 10, 11, and 12 were then each individually added, at a concentration of 30 μM, to acetonitrile and the emission spectrum of each was monitored. The compounds emitted at 600 nm with an intensity of about 7.57×10^5 arbitrary units (a.u.) in neat acetonitrile. […] FIG. 8B illustrates the emission properties of Compound 12.

[5] = Fluorescence response to pH in buffered water; conditions: for fluorescence emission in water at pH 7.5: water pH 7.5
Protocol: Stock solutions of each compound (having a concentration of from 1-5 mM) were prepared by dissolving the corresponding salts of the compounds in methanol or 1V, N-dimethylformamide, and then diluting the same with acetonitrile or buffered water having a pH of from 2.5 to 7.5 derived from 0.2 M […] and 0.1 M citric acid, to achieve a sample solution having a compound concentration of 30.0 μM.
The emission spectrum for each sample was obtained. The results are illustrated by the plot in FIG. 2A.
The emission spectrum for each sample was obtained. […] The results are illustrated in the plot of FIG. 2B.
The fluorescence emission spectrum of Compound 8 in water having a pH of 2.5 was also obtained and is illustrated by the curved line with a peak at 360 nm in FIG. 5B.
Compounds 10, 11, and 12 were each individually added, at a concentration of 30 μM, to water having a pH=7.5 and the emission spectra of each were obtained. […] As the pH was decreased from 7.5 to 2.5 in 0.5 pH unit increments, fluorescence emission at 600 nm remained relatively nonexistent and the intensity of the fluorescence emission at 400 nm increased in correlation to the decrease in pH. FIG. 8A illustrates the emission properties of Compound 12.

[6] = 30 μM acetonitrile, 298 K, Table 1

| λem, max Em ([1]; MeCN, 30 μM) [nm] | λabs, max Abs ([2]; MeCN, 30 μM) [nm] | […]F (quantum yield) ([3]; MeCN, 30 μM) [%] | λem, max Em [1, 6] [nm] | λabs, max Abs [2, 6] [nm] | ΦF (quantum yield) [3] [%] | λabs, max Abs ([2]; H2O pH = 7.5, 30 μM) [nm] | […]F (quantum yield) ([3]; H2O pH = 7.5, 30 μM) [%] | emission wavelength λem,max [4] [nm] | fluorescence emission in water at pH 7.5 [5] | Compound | further results |
| --- | --- | --- | --- | --- | --- | --- | --- | --- | --- | --- | --- |
| 490 | 350 | 75 | – | – | – | – | – | – | – | CCCCn1cc2cccc(-c3ccc(N(C)C)cc3)[n+]2c1 [Compound 9, 2-butyl-5-(4-(dimethylamino)phenyl)-2H-imidazo[1,5-a]pyridin-4-ium tetraphenylborate] | – |
| – | – | – | 430 | 320 | 64 | – | – | – | – | CCCCn1c[n+]2ccccc2c1-c1ccc(OC)cc1.[Cl-] [Compound 4, 2-butyl-1-(4-methoxyphenyl)-2H-imidazo[1,5-a]pyridin-4-ium chloride] | – |
| – | – | – | 415 | 320 | 46 | – | – | – | – | CCCCn1c[n+]2ccccc2c1-c1ccc(C)cc1 [Compound 3, 2-butyl-1-(p-tolyl)-2H-imidazo[1,5-a]pyridin-4-ium tertraphenylborate] | – |
| – | – | – | 550 | 355 | 38 | – | – | – | – | CCCCn1c[n+]2ccccc2c1-c1ccc(N(CC)CC)cc1 [Compound 5, 2-butyl-1-(4-(diethylamino)phenyl)-2H-imidazo[1,5-a]pyridin-4-ium tetraphenylborate] | – |
| 540 | 360 | 10 | – | – | – | – | – | – | – | COc1ccc(-n2cc3cccc(-c4ccc(N(C)C)cc4)[n+]3c2)cc1 [Compound 21, 5-(4-(dimethylamino)phenyl)-2-(4-methoxyphenyl)-2H-imidazo[1,5-a]pyridin-4-ium tetraphenylborate] | – |
| – | 340 | 0 | – | – | – | 340 | 0 | – | – | Cc1ccc(-n2cc3cccc(-c4cn(-c5ccc(N(C)C)cc5)nn4)[n+]3c2)cc1.[Cl-] [Compound 13, 5-(1-(4-(dimethylamino)phenyl)-1H-1,2,3-triazol-4-yl)-2-(p-tolyl)-2H-imidazo[1,5-a]pyridin-4-ium chloride] | λem, max Em ([1]; H2O pH = 2.5, 30 μM): 405 nm; λem, max Em ([1]; MeCN + 50 μL TFA, 30 μM): 410 nm; λabs, max Abs ([2]; H2O pH = 2.5, 30 μM): 340 nm; λabs, max Abs ([2]; MeCN + 50 μL TFA, 30 μM): 340 nm; […]F (quantum yield) ([3]; H2O pH = 2.5, 30 μM): 59%; […]F (quantum yield) ([3]; MeCN + 50 μL TFA, 30 μM): 67% |
| – | – | – | – | – | – | – | – | 400 | essentially no fluorescence emission | CCN(CC)c1ccc(-n2cc(-c3cccc4cn(-c5ccc(N(C)C)cc5)c[n+]34)nn2)cc1.[Cl-] [Compound 10, 5-(1-(4-(diethylamino)phenyl)-1H-1,2,3-triazol-4-yl)-2-(4-(dimethylamino)phenyl)-2H-imidazo[1,5-a]pyridin-4-ium chloride] | emission intensity at 400 nm [4]: 1.34×10^6 a.u.; emission intensity at 600 nm [4]: about 7.57×10^5 arbitrary units (a.u.); emission wavelength [4]: 600 nm; emission response to stepwise addition of TFA ([4]; acetonitrile, TFA 0 to 0.2 M, excited at 340 nm, emission at 580 nm and 400 nm): two stage transitions |
| – | 340 | 0 | – | – | – | 340 | 0 | – | – | CCN(CC)c1ccc(-n2cc(-c3cccc4cn(-c5ccc(C)cc5)c[n+]34)nn2)cc1.[Cl-] [Compound 14, 5-(1-(4-(diethylamino)phenyl)-1H-1,2,3-triazol-4-yl)-2-(p-tolyl)-2H-imidazo[1,5-a]pyridin-4-ium chloride] | λem, max Em ([1]; H2O pH = 2.2, 30 μM): 405 nm; λem, max Em ([1]; MeCN + excess TFA, 30 μM): 410 nm; λabs, max Abs ([2]; H2O pH = 2.2, 30 μM): 340 nm; λabs, max Abs ([2]; MeCN + excess TFA, 30 μM): 340 nm; […]F (quantum yield) ([3]; H2O pH = 2.2, 30 μM): 53%; […]F (quantum yield) ([3]; MeCN + excess TFA, 30 μM): 64% |
| 605 | 400 | 35 | – | – | – | 340 | 0 | 400 | essentially no fluorescence emission | Cc1ccc(-n2cc(-c3cccc4cn(-c5ccc(N(C)C)cc5)c[n+]34)nn2)cc1.[Cl-] [Compound 11, 2-(4-(dimethylamino)phenyl)-5-(1-(p-tolyl)-1H-1,2,3-triazol-4-yl)-2H-imidazo[1,5-a]pyridin-4-ium chloride] | emission intensity at 400 nm [4]: 1.34×10^6 a.u.; emission intensity at 600 nm [4]: about 7.57×10^5 arbitrary units (a.u.); emission wavelength [4]: 600 nm; λem, max Em ([1]; H2O pH = 2.5, 30 μM): 400 nm; λem, max Em ([1]; MeCN + 50 μL TFA, 30 μM): 405 nm; λabs, max Abs ([2]; H2O pH = 2.5, 30 μM): 340 nm; λabs, max Abs ([2]; MeCN + 50 μL TFA, 30 μM): 340 nm; […]F (quantum yield) ([3]; H2O pH = 2.5, 30 μM): 29%; […]F (quantum yield) ([3]; MeCN + 50 μL TFA, 30 μM): 55% |
| – | – | – | – | – | – | – | – | 360 | fluorescence quenching | CC(C)c1cc(N(C)C)cc(C(C)C)c1-n1cc2cccc[n+]2c1 [Compound 8, 2-(4-(dimethylamino)-2,6-diisopropylphenyl)-2H-imidazo[1,5-a]pyridin-4-ium tetraphenylborate] | fluorescence emission in neat acetonitrile ([4]; acetonitrile without acid): fluorescence quenching; fluorescence λem ([5]; water, pH 2.5): 360 nm |

From patent US9908877B2, “Imidazo[1,5-a]pyridinium ion fluorophores, and methods of making and using the same” (Indiana University Research and Technology Corporation, priority 2013, dated 2018)
